Source: US11596664B2, “Plant extracts made of Sideritis and use thereof to boost cognitive performance” (Finzelberg GmbH & Co. KG, priority 2010, dated 2023)

Tested on: serotonin absorption (serotonergic re-uptake)
Assay: Serotonin absorption inhibition, test system according to EP 1 634 602
Type: biochemical
Conditions: reference substance at 10 μm; defines 100%
Excerpt: Serotonergic neurotransmission being influenced is described for plants of the genus Sideritis in the patent application EP 1 634 602. […] The experimental set-up described in paragraphs [0046] to [0054] for measuring serotonergic re-uptake rates was used for initial screening of suitable species for the tests.
50 g of the herbal drug is mixed twice with 15 times the quantity of boiling water and extracted with agitation. Both maceration extracts are allowed to stand at room temperature to cool down and combined. The two combined macerations are filtered off with a fluted filter and concentrated to a soft extract using a rotary evaporator. The extractive yields determined for the different species are shown below. In order to test for the serotonin absorption inhibition, the extracts were all weighed in at the same native content and assayed with a measuring concentration of 50 μg/ml in the test system according to EP 1 634 602.
50 g of the herb Sideritis was mixed twice at 45° C. with 15 times the quantity of a mixture of water and ethanol and extracted with agitation. Both maceration extracts were allowed to stand at room temperature to cool down and combined. The two combined macerations were filtered off with a fluted filter and concentrated to a soft extract using a rotary evaporator. The extractive yields determined for the different species are shown below. […]

## COCCCC/C(=N\OCCN)c1ccc(C(F)(F)F)cc1 [fluvoxamine]
  Serotonin absorption inhibition, positive control: 100%
